Assay results: publication PMC12055641, “The Study of Antistaphylococcal Potential of Omiganan and Retro-Omiganan Under Flow Conditions” (Probiotics and Antimicrobial Proteins, 2024)
No end group written: not given here.

Legend:
[1] = system: S. aureus clinical strain 043SC (MRSA); conditions: 24 h
Source text: (§1) Clinical S. aureus strains were collected from patients with atopic dermatitis during their visits to the Outpatient Clinic and hospitalization in the Department of Dermatology, Venereology and Allergology at Medical University of Gdańsk (following the approval from the ethics committee, Approval Number NKBBN/242–477/2014). Reference strains of S. aureus ATCC 25923, S. aureus ATCC 33591, S. aureus ATCC 9144, and S. aureus ATCC 12598 were obtained from the American Type Culture Collection. All the strains were stored at − 80 °C in Roti®-Store cryo vials (Carl Roth GmbH, Karlsruhe, Germany) and before the tests were transferred into fresh Mueller–Hinton Medium (BioMaxima, Lublin, Poland) and incubated for 24 h at 37 °C. Subsequently, each bacterial inoculum was seeded on Mueller–Hinton agar plates (BioMaxima) and incubated again for 24 h. The cultures prepared in this way were used in further antimicrobial assays. Minimum inhibitory concentrations (MICs) were determined according to the Clinical and Laboratory Standards Institute recommendations. […] The experiments were conducted on 96-well microtiter plates, with a final volume of 100 μL. Additionally, in the case of daptomycin, the medium was supplemented with Ca^2+ (50 mg/L). Cell densities were adjusted spectrophotometrically (Multiskan™ GO Microplate Spectrophotometer, Thermo Scientific) at 600 nm. The MICs were taken as the lowest drug concentration at which a visible growth of the microorganisms was inhibited. Minimum biofilm eliminating concentrations (MBECs) were determined on 96-well flat-bottomed microtiter polystyrene plates with resazurin (7-hydroxy-3H-phenoxazin-3-one 10-oxide sodium salt) as a cell viability reagent. To do this, the plates were filled with 100 μL of the initial inoculums of bacteria (0.5 × 10^7 CFU/mL) in the Mueller–Hinton broth and incubated for 24 h at 37 °C. […] After 24 h of incubation, 20 μL of resazurin (4 mg/mL) was added to each well and the MBEC values were read. Minimum biofilm inhibitory concentrations (MBICs) were also determined on 96-well flat-bottomed microtiter polystyrene plates as described previously. To do this, 50 μL of the compounds in the concentration range, diluted MHB, were prepared. Subsequently, the 50 μL of the staphylococcal inoculums were added to reach the same density of bacteria as that in the MBEC assay. After 24 h of incubation at 37 °C, the wells were rinsed three times with PBS and the fresh medium (100 μL) with resazurin (0.6 mg/mL) was added. Then, after 1 h of incubation, MBICs were read. […] All experiments were conducted in triplicate.

[2] = system: S. aureus clinical strain 015N (MRSA); conditions: 24 h
Source text: as §1

[3] = system: reference and clinical strains of staphylococci (S. aureus); conditions: 24 h
Source text: as §1

[4] = system: S. aureus ATCC 33591 (MRSA); conditions: ATCC 33591, 24 h
Source text: as §1

[5] = system: S. aureus clinical strain 015N (MRSA) biofilm; conditions: clinical strain 015N biofilm, 24 h
Source text: as §1

[6] = system: S. aureus clinical strain 004N (MRSA); conditions: 24 h
Source text: as §1

[7] = system: S. aureus clinical strain 051N (MRSA); conditions: 24 h
Source text: as §1

[8] = system: S. aureus ATCC 33591 (MRSA) biofilm; conditions: ATCC 33591, 24 h
Source text: as §1

[9] = system: S. aureus clinical strain 043SC (MRSA) biofilm; conditions: clinical strain 043SC biofilm, 24 h
Source text: as §1

[10] = system: S. aureus clinical strain 051N (MRSA) biofilm; conditions: clinical strain 051N biofilm, 24 h
Source text: as §1

[11] = system: S. aureus clinical strain 004N (MRSA) biofilm; conditions: clinical strain 004N biofilm, 24 h
Source text: as §1

[12] = system: biofilm of reference and clinical strains of staphylococci (S. aureus); conditions: for mean MBEC (initial values): 24 h
Source text: as §1

Hemolysis assay = format: cell-based; conditions: human, human red blood cells (RBCs), 64 μg/mL (lowest concentration causing hemolysis > 10%); read-out: degree of hemolysis
Protocol: The hemolysis assay was conducted using a procedure described previously. […] The control wells for 0% hemolysis and 100% hemolysis consisted of RBCs suspended in PBS and 1% of Triton X-100, respectively. […] After centrifugation, the supernatant was carefully […] to new microtiter plates and the release of hemoglobin was monitored by absorbance readings at 540 nm (MultiskanTM GO Microplate Spectrophotometer, Thermo Scientific). All experiments were conducted in triplicate. Blood collection was approved by Medical University of Gdańsk ethics committee (Consent Number: NKBBN/264/2019).

[13] = system: human keratinocytes (HaCaT); format: cell-based; conditions: 24 h
Protocol: To evaluate the cytotoxicity of the peptides (IC50), the classic MTT assay on 96-well plates was performed for human keratinocytes (HaCaT) which were acquired from the ATCC. The assay utilizes colorimetric determination of the cell metabolic activity, and the color intensity reflects the number of live cells that can be measured spectrophotometrically. […] DMSO was added to the control cells at a final concentration of 1.0% (v/v), which was related to the maximum concentration of the solvent compounds used in the experiment. After 24 h of incubation at 37 °C (humidified 5% CO2 incubator) with the peptides, a medium containing 1 mg/mL of MTT was added to the wells up to a final concentration of 0.5 mg/mL. Subsequently, the plates were incubated at 37 °C for 4 h. Then, the medium was aspirated, and the formazan product was solubilized with DMSO. The background absorbance at 630 nm was subtracted from that at 570 nm for each well (Epoch, BioTek Instruments, USA). Six replicates were conducted for each concentration. All experiments were repeated at least twice and the resulting IC50 values were calculated with GraFit 7 software (v. 7.0, Erithacus, Berkley, CA, USA).

[14] = system: S. aureus ATCC 6538 biofilm; conditions: ATCC 6538, reference strain
S. aureus ATCC 9144 = conditions: ATCC 9144, reference strain
Source text: as §1

[15] = system: S. aureus clinical strain 060S
Source text: as §1

[16] = system: S. aureus ATCC 9144 biofilm; conditions: ATCC 9144, reference strain
Source text: as §1

S. aureus ATCC 12598 = conditions: ATCC 12598, reference strain
Source text: as §1

[17] = system: S. aureus clinical strain 031S biofilm
Source text: as §1

[18] = system: S. aureus ATCC 12598 biofilm; conditions: ATCC 12598, reference strain
Source text: as §1

[19] = system: S. aureus ATCC 25923 biofilm; conditions: ATCC 25923, reference strain
Source text: as §1

[20] = system: S. aureus clinical strain 030N biofilm
Source text: as §1

[21] = system: S. aureus clinical strain 060S biofilm
Source text: as §1

S. aureus ATCC 25923 = conditions: ATCC 25923, reference strain
Source text: as §1

[22] = system: S. aureus clinical strain 005S
Source text: as §1

[23] = system: S. aureus clinical strain 009S biofilm
Source text: as §1

[24] = system: S. aureus clinical strain 009S
Source text: as §1

[25] = system: S. aureus clinical strain 031S
Source text: as §1

[26] = system: S. aureus clinical strain 030N
Source text: as §1

[27] = system: S. aureus clinical strain 005S biofilm
Source text: as §1

S. aureus ATCC 6538 = conditions: ATCC 6538, reference strain
[28] = system: S. aureus ATCC 6538 biofilm; conditions: ATCC 6538, reference strain; remark: listed apart in the source
cells = system: cells; parameters: method as in PMID 11294848; conditions: low concentrations; cited from earlier work

Substance: KRRWPWWPWRLI-NH2 [Retro-omiganan Cl^−]
- MIC [1]: 8 µg/mL
- MIC [2]: 8 µg/mL
- mean MIC (initial values) [3]: 8.93 µg/mL
- MIC [4]: 16 µg/mL
- MBEC [5]: 32 µg/mL
- MBIC [5]: 16 µg/mL
- MIC [6]: 16 µg/mL
- MIC [7]: 16 µg/mL
- MBEC [8]: 32 µg/mL
- MBIC [8]: 32 µg/mL
- MBEC [9]: 32 µg/mL
- MBIC [9]: 16 µg/mL
- MBEC [10]: 64 µg/mL
- MBIC [10]: 16 µg/mL
- MBEC [11]: 64 µg/mL
- MBIC [11]: 16 µg/mL
- mean MBEC (initial values) [12]: 36.57 µg/mL
- hemolysis at 60 min, 64 μg/mL (Hemolysis assay): 16%
- IC50 [13]: 26.66 µg/mL

Substance: KRRWPWWPWRLI-NH2 [Retro-omiganan TFA^−]
- MBEC [14]: 64 µg/mL
- MIC [1]: 8 µg/mL
- MIC [2]: 8 µg/mL
- mean MIC (initial values) [3]: 7.18 µg/mL
- MIC (S. aureus ATCC 9144): 8 µg/mL
- MIC [15]: 1 µg/mL
- MIC [4]: 16 µg/mL
- MBEC [5]: 32 µg/mL
- MBIC [5]: 16 µg/mL
- MBEC [16]: 32 µg/mL
- MBIC [16]: 16 µg/mL
- MIC [6]: 8 µg/mL
- MIC [7]: 8 µg/mL
- MBEC [8]: 64 µg/mL
- MBIC [8]: 16 µg/mL
- MIC (S. aureus ATCC 12598): 8 µg/mL
- MBEC [17]: 16 µg/mL
- MBEC [18]: 32 µg/mL
- MBIC [18]: 16 µg/mL
- MBEC [19]: 128 µg/mL
- MBIC [19]: 16 µg/mL
- MBEC [20]: 32 µg/mL
- MBIC [20]: 8 µg/mL
- MBEC [9]: 16 µg/mL
- MBIC [9]: 8 µg/mL
- MBEC [21]: 16 µg/mL
- MBIC [21]: 1 µg/mL
- MIC (S. aureus ATCC 25923): 8 µg/mL
- MBEC [10]: 32 µg/mL
- MBIC [10]: 32 µg/mL
- MIC [22]: 0.5 µg/mL
- MBEC [23]: 16 µg/mL
- MBIC [23]: 2 µg/mL
- MBEC [11]: 64 µg/mL
- MBIC [11]: 16 µg/mL
- MIC [24]: 1 µg/mL
- MIC [25]: 2 µg/mL
- MIC [26]: 16 µg/mL
- MBEC [27]: 16 µg/mL
- MBIC [27]: 2 µg/mL
- mean MBEC (initial values) [12]: 40.00 µg/mL
- mean MBIC (initial values) ([12]; average over 14 strains, polystyrene 96-well plates, not corrected): 11.82 µg/mL
- MIC (S. aureus ATCC 6538): 8 µg/mL
- MBIC [28]: 16 µg/mL
- IC50 [13]: 29.51 µg/mL

Substance: indolicidin: antimicrobial peptide derived from bovine neutrophil granules (ILPWKWPWWPWRR; ends and bridges not checked; UniProt P33046 131-143, looked up)
- cells with membrane depolarization (cells): up to 75%
